Assay results from paper PMC3382171 (PLoS ONE, 2012).

Tests used:
Assay in all cases: biochemical
Design in all cases: Invitrogen SelectScreen kinase panel, percent inhibition at 1 uM, ATP at Km
Conditions in all cases: read-out: Invitrogen KSS %Inh at 1 µM
MAPKAPK3 = MAPKAPK3 (Homo sapiens, UniProt Q16644)
Summary of the method: (§1)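 Commercial kinase panel screens run with ATP at the Km for each kinase. Compounds tested at 1 µM final concentration; values are % inhibition of phosphorylation relative to control.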

PIK3CG (p110 gamma) = PIK3CG (p110 gamma) (Homo sapiens, UniProt P48736)
Summary of the method: as §1

MARK2 = MARK2 (Homo sapiens, UniProt Q7KZI7)
Summary of the method: as §1

EPHA2 = EPHA2 (Homo sapiens, UniProt P29317)
Summary of the method: as §1

PRKD1 (PKC mu) = PRKD1 (PKC mu) (Homo sapiens, UniProt Q15139)
Summary of the method: as §1

CHEK1 (CHK1) = CHEK1 (CHK1) (Homo sapiens, UniProt O14757)
Summary of the method: as §1

MAPK3 (ERK1) = MAPK3 (ERK1) (Homo sapiens, UniProt P27361)
Summary of the method: as §1

FES (FPS) = FES (FPS) (Homo sapiens, UniProt P07332)
Summary of the method: as §1

CAMK2A (CaMKII alpha) = CAMK2A (CaMKII alpha) (Homo sapiens, UniProt Q9UQM7)
Summary of the method: as §1

KIT T670I = KIT T670I (Homo sapiens, UniProt P10721, T670I)
Summary of the method: as §1

IGF1R = IGF1R (Homo sapiens, UniProt P08069)
Summary of the method: as §1

PAK6 = PAK6 (Homo sapiens, UniProt Q9NQU5)
Summary of the method: as §1

PTK6 (Brk) = PTK6 (Brk) (Homo sapiens, UniProt Q13882)
Summary of the method: as §1

ERBB2 (HER2) = ERBB2 (HER2) (Homo sapiens, UniProt P04626)
Summary of the method: as §1

CDK5/p35 = target: T1, CDK5/p35 (Homo sapiens, UniProt Q00535)
T1 construct: p35
Summary of the method: as §1

RPS6KA4 (MSK2) = RPS6KA4 (MSK2) (Homo sapiens, UniProt O75676)
Summary of the method: as §1

AMPK A1/B1/G1 = target: T2, AMPK A1/B1/G1 (Homo sapiens, UniProt Q13131)
T2 construct: gene PRKAA1; A1/B1/G1
Summary of the method: as §1

FYN = FYN (Homo sapiens, UniProt P06241)
Summary of the method: as §1

FGFR4 = FGFR4 (Homo sapiens, UniProt P22455)
Summary of the method: as §1

AURKA (Aurora A) = AURKA (Aurora A) (Homo sapiens, UniProt O14965)
Summary of the method: as §1

ROCK1 = ROCK1 (Homo sapiens, UniProt Q13464)
Summary of the method: as §1

CSNK1D (CK1 delta) = CSNK1D (CK1 delta) (Homo sapiens, UniProt P48730)
Summary of the method: as §1

Chain of FES (FPS) (P07332 whole entry): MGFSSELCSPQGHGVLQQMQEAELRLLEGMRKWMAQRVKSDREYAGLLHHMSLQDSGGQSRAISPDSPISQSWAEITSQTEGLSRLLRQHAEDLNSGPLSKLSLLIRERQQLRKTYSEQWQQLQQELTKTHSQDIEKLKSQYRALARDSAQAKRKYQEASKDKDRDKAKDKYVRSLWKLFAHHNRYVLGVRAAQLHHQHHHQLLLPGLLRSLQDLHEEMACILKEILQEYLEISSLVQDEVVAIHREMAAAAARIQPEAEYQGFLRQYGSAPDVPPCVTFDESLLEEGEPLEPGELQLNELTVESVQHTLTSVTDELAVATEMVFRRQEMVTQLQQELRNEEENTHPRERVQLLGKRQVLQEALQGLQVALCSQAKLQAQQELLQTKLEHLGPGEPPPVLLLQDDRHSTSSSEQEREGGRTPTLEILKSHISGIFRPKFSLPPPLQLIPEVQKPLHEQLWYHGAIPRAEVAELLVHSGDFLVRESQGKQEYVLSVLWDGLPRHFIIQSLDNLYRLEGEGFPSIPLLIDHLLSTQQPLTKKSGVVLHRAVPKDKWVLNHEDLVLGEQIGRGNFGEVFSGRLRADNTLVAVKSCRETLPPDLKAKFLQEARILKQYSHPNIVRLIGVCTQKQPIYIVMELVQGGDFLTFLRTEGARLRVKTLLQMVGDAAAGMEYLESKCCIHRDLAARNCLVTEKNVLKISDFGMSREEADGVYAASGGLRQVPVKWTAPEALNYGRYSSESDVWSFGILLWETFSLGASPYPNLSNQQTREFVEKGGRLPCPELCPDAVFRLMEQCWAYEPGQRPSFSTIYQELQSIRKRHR
Chain of PAK6 (Q9NQU5 whole entry): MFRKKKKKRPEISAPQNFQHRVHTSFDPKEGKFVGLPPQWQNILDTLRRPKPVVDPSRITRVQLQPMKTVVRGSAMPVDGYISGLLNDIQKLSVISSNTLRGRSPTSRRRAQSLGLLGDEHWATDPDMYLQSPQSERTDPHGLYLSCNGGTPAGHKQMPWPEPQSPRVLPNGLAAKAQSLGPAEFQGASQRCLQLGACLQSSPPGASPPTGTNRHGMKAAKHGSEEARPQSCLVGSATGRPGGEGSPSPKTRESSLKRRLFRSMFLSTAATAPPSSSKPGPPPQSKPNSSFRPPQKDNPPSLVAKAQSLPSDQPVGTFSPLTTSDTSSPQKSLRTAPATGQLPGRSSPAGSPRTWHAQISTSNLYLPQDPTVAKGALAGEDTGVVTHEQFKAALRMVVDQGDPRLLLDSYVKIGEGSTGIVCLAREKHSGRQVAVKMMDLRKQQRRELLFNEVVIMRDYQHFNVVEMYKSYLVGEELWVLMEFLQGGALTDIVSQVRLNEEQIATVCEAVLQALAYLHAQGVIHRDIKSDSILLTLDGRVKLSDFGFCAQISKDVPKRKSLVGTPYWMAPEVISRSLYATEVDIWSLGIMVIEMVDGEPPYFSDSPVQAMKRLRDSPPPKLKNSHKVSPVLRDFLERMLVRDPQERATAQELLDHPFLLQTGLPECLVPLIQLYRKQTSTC
Chain of ERBB2 (HER2) (P04626 whole entry): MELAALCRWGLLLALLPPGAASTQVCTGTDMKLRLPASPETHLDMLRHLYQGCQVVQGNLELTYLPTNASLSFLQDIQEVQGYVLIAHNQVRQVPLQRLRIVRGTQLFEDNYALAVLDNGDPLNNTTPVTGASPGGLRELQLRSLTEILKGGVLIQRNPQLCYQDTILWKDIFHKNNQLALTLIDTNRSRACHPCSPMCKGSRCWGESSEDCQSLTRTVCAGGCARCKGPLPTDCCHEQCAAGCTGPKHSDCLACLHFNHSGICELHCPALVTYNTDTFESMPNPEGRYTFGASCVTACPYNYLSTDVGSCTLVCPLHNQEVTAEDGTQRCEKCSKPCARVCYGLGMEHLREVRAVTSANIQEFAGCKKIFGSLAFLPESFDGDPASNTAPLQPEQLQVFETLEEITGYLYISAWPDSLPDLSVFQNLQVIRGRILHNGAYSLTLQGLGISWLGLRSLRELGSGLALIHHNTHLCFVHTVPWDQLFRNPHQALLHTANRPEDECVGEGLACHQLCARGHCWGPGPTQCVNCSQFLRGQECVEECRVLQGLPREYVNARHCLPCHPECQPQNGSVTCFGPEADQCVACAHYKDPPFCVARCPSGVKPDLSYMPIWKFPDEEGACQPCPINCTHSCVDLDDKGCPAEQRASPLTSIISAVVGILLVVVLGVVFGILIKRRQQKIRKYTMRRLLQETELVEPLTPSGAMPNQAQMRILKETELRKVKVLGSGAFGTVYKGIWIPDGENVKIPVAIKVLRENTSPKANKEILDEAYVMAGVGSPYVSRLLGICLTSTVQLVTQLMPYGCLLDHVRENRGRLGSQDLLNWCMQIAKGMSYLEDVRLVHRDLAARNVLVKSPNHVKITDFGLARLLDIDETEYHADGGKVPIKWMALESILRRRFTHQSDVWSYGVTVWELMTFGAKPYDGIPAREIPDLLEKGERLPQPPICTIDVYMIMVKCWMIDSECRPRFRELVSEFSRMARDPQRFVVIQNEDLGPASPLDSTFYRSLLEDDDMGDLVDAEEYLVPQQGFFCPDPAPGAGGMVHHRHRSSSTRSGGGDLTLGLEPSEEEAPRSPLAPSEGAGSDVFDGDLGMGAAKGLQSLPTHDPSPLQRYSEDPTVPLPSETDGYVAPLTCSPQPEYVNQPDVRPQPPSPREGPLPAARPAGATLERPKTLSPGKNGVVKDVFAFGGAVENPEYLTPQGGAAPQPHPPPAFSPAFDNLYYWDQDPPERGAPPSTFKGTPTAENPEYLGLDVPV
Chain of RPS6KA4 (MSK2) (O75676 whole entry): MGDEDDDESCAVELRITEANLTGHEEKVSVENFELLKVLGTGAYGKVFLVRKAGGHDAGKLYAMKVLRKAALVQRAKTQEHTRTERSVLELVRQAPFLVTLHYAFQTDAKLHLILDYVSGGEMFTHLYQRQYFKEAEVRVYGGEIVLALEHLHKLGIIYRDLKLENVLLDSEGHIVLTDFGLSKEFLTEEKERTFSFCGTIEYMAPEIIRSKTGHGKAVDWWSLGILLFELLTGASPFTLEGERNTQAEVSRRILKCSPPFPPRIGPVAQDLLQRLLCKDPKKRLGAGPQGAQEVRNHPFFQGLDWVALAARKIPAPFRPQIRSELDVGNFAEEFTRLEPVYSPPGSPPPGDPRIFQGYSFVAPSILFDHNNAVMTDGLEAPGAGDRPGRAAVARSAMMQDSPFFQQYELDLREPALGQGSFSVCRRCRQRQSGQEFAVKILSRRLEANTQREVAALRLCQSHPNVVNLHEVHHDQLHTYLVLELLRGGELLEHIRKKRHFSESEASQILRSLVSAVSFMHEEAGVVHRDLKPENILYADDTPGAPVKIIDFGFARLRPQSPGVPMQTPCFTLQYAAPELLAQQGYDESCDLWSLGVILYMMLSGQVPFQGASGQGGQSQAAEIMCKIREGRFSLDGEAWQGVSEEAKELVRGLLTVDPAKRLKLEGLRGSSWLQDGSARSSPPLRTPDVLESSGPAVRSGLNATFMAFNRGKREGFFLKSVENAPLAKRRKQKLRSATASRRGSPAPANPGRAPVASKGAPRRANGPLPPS
Chain of ROCK1 (Q13464 whole entry): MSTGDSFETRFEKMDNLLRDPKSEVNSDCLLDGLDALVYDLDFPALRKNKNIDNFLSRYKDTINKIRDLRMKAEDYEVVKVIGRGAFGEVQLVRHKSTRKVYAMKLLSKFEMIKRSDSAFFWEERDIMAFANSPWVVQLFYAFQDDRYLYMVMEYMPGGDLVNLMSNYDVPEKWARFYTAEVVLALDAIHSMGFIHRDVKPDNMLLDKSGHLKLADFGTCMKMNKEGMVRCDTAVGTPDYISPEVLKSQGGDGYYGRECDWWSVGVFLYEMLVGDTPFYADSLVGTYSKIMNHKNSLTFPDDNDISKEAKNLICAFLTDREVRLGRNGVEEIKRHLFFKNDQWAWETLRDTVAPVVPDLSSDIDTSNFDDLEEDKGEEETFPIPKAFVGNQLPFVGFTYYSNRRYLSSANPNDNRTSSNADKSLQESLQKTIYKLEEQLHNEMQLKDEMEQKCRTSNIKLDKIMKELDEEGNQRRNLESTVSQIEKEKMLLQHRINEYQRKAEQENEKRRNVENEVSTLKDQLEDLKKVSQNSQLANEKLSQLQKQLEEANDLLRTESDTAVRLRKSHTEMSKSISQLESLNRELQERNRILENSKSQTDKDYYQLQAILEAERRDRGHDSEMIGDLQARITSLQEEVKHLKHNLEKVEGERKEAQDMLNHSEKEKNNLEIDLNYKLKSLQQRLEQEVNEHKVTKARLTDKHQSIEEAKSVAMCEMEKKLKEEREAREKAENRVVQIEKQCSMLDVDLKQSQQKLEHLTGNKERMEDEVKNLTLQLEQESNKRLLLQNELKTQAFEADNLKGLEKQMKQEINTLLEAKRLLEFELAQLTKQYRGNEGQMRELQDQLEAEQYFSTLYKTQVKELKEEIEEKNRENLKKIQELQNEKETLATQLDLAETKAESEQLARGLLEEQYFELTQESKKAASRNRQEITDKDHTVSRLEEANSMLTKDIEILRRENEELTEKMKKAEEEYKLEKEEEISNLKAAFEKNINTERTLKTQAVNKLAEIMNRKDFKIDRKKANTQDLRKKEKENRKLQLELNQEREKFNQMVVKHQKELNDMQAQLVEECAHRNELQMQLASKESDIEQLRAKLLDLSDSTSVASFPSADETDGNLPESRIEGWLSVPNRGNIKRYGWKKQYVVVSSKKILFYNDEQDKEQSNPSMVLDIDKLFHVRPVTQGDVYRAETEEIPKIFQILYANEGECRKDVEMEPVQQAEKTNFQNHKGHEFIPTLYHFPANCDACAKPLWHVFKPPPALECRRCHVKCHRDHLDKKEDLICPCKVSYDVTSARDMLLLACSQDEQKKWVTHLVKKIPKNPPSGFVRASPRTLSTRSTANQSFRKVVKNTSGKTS

inhibition at 1 µM (MAPKAPK3): 12%
inhibition at 1 µM (PIK3CG (p110 gamma)): 12%
inhibition at 1 µM (MARK2): 9%
inhibition at 1 µM (EPHA2): -2%
inhibition at 1 µM (PRKD1 (PKC mu)): 37%
inhibition at 1 µM (CHEK1 (CHK1)): 3%
inhibition at 1 µM (MAPK3 (ERK1)): 28%
inhibition at 1 µM (FES (FPS)): -11%
inhibition at 1 µM (CAMK2A (CaMKII alpha)): -1%
inhibition at 1 µM (KIT T670I): 36%
inhibition at 1 µM (IGF1R): 9%
inhibition at 1 µM (PAK6): 10%
inhibition at 1 µM (PTK6 (Brk)): 5%
inhibition at 1 µM (ERBB2 (HER2)): 10%
inhibition at 1 µM (CDK5/p35): 9%
inhibition at 1 µM (RPS6KA4 (MSK2)): 5%
inhibition at 1 µM (AMPK A1/B1/G1): 16%
inhibition at 1 µM (FYN): -4%
inhibition at 1 µM (FGFR4): 5%
inhibition at 1 µM (AURKA (Aurora A)): 15%
inhibition at 1 µM (ROCK1): 4%
inhibition at 1 µM (CSNK1D (CK1 delta)): 95%
Compound: N#CCCNc1nccc(-c2cn(CC(F)F)nc2-c2cnc3[nH]ccc3c2)n1 [RAFi, PF-04880594]
